Test: recombinant barcode read abundance after kanamycin selection (control-corrected) (log10(CPM+1)); higher = more efficient recombination; sequences stand for … in AGTGCAGAGAAAATCGGCCAGTTTTCTCTGCCTGCAGTCCGCATGCCGT…AGATTTATGCAGCGGACTGCCTTTCTCCCAAAGTGATAAACCGGACAGTATCATGGACCGGTTTTCCCGGTAATCCGTATTTGCAAGGTTGGTTTCACT; site = the 11-nt target
How it was run: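 Recombination efficiency draws on barcodes counted at recombinant junctions in a pooled E. coli screen of targets paired with IS621 bridge RNA target-binding loops. The counts were converted to counts per million, averaged and corrected against the chloramphenicol/ampicillin LB agar control, then reported as log10(CPM+1). Selection plates held chloramphenicol/ampicillin/kanamycin with 0.1 mM IPTG, with two replicates per condition.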
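Further: IS621 recombinase and bridge RNA in Escherichia coli cells.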

Sequence | recombinant barcode read abundance (log10)
GTCCAGGCTTGGGTTCTAACCTGTTGCGG (site GACCAGTCTCC) | 0.421
GTCCAGGCTTGGGTTCTAACCTGTTGCGG (site GTCCAGGCTCC) | 0.924
GTCCCTCCTTGGGTTCTAACCTGTTGCCT (site GTCCCTCCTAA) | 0.187
GTCCCTCCTTGGGTTCTAACCTGTTGCCT (site GTCCCTCCTAC) | 0.116
GTCCCTCCTTGGGTTCTAACCTGTTGCCT (site GTCCCTCCTAG) | 0.709
GTCCCTCCTTGGGTTCTAACCTGTTGCCT (site GTCCCTCCTAT) | 0.586
GTCCGAACTTGGGTTCTAACCTGTTGCCA (site GTCCGAACTTG) | 0.428
GTCCGAACTTGGGTTCTAACCTGTTGCCA (site GTCGGAGCTTG) | 0.0199
GTCCGTCCTTGGGTTCTAACCTGTTGCCT (site GTCCGTCCTAA) | 0.119
GTCCGTCCTTGGGTTCTAACCTGTTGCCT (site GTCCGTCCTAC) | 0.0319
GTCCGTCCTTGGGTTCTAACCTGTTGCCT (site GTCCGTCCTAG) | 0.833
GTCCGTCCTTGGGTTCTAACCTGTTGCCT (site GTCCGTCCTAT) | 0.0563
GTCCGTCCTTGGGTTCTAACCTGTTGCGT (site GTCCGTCCTAA) | 0.139
GTCCGTCCTTGGGTTCTAACCTGTTGCGT (site GTCCGTCCTAC) | 1.69
GTCCGTCCTTGGGTTCTAACCTGTTGCGT (site GTCCGTCCTAG) | 0.09
GTCCGTCCTTGGGTTCTAACCTGTTGCGT (site GTCCGTCCTAT) | 0.504
GTCCTATCTTGGGTTCTAACCTGTTGCTA (site AGGTCTACTGT) | 0.146
GTCCTATCTTGGGTTCTAACCTGTTGCTA (site GTCCTATCTTA) | 0.656
GTCCTGTCTTGGGTTCTAACCTGTTGCCG (site GTCCTGTCTCG) | 1.16
GTCCTGTCTTGGGTTCTAACCTGTTGCCG (site GTCGTGTCTCG) | 0.397
GTCGACCCTTGGGTTCTAACCTGTTGCCT (site GTCGACCCTAG) | 1.98
GTCGACCCTTGGGTTCTAACCTGTTGCCT (site GTCGACGCTAG) | 0.136

Sequence | recombinant barcode read abundance (log10)
GTCGCGACTTGGGTTCTAACCTGTTGCCT (site GTCGCGACTAG) | 0.0792
GTCGCGACTTGGGTTCTAACCTGTTGCCT (site GTCGCGCCTAG) | 0.353
GTCGCGACTTGGGTTCTAACCTGTTGCCT (site GTCGCGGCTAG) | 0.145
GTCGCGACTTGGGTTCTAACCTGTTGCCT (site GTCGCGTCTAG) | 0.215
GTCGGAGCTTGGGTTCTAACCTGTTGCCA (site GTCCGAACTTG) | 0.0692
GTCGGAGCTTGGGTTCTAACCTGTTGCCA (site GTCGGAGCTTG) | 0.959
GTCGGGCCTTGGGTTCTAACCTGTTGCCT (site ATCGGGCCTAG) | 0.0962
GTCGGGCCTTGGGTTCTAACCTGTTGCCT (site CTCGGGCCTAG) | 0.0668
GTCGGGCCTTGGGTTCTAACCTGTTGCCT (site GTCGGGCCTAG) | 0.686
GTCGGGCCTTGGGTTCTAACCTGTTGCCT (site TTCGGGCCTAG) | 0.126
GTCGTGTCTTGGGTTCTAACCTGTTGCCG (site GTCCTGTCTCG) | 0.0845
GTCGTGTCTTGGGTTCTAACCTGTTGCCG (site GTCGTGTCTCG) | 1.28
GTCGTTGCTTGGGTTCTAACCTGTTGCCT (site ATCGTTGCTAG) | 0.522
GTCGTTGCTTGGGTTCTAACCTGTTGCCT (site CTCGTTGCTAG) | 0.0407
GTCGTTGCTTGGGTTCTAACCTGTTGCCT (site GTCGTTGCTAG) | 1.07
GTCGTTGCTTGGGTTCTAACCTGTTGCCT (site TTCGTTGCTAG) | 1.19
GTCTAATCTTGGGTTCTAACCTGTTGCCT (site GTCTAATCTAG) | 0.719
GTCTAATCTTGGGTTCTAACCTGTTGCCT (site GTCTCATCTAG) | 0.271
GTCTAATCTTGGGTTCTAACCTGTTGCCT (site GTCTGATCTAG) | 0.174
GTCTAATCTTGGGTTCTAACCTGTTGCCT (site GTCTTATCTAG) | 0.0315
GTCTACGCTTGGGTTCTAACCTGTTGCCA (site GTCTAAGCTCG) | 0.0189
GTCTACGCTTGGGTTCTAACCTGTTGCCA (site GTCTACGCTTG) | 0.253

Sequence | recombinant barcode read abundance (log10)
GTCTCACCTTGGGTTCTAACCTGTTGCGG (site GTATCTCCTCC) | 0.094
GTCTCACCTTGGGTTCTAACCTGTTGCGG (site GTCTCACCTCC) | 0.91
GTCTGTTCTTGGGTTCTAACCTGTTGCCT (site GACTGTTCTAG) | 0.17
GTCTGTTCTTGGGTTCTAACCTGTTGCCT (site GCCTGTTCTAG) | 0.071
GTCTGTTCTTGGGTTCTAACCTGTTGCCT (site GGCTGTTCTAG) | 0.16
GTCTGTTCTTGGGTTCTAACCTGTTGCCT (site GTCTGTTCTAG) | 0.852
GTCTTCTCTTGGGTTCTAACCTGTTGCTT (site GTCTACTCTCA) | 0.0691
GTCTTCTCTTGGGTTCTAACCTGTTGCTT (site GTCTTCTCTAA) | 0.487
GTGAAGCCTTGGGTTCTAACCTGTTGCCA (site GTGAAGCCTTG) | 0.758
GTGAAGCCTTGGGTTCTAACCTGTTGCCA (site GTGTATCCTTG) | 0.165
GTGAGAGCTTGGGTTCTAACCTGTTGCGG (site GTGAGAGCTCC) | 1.43
GTGAGAGCTTGGGTTCTAACCTGTTGCGG (site GTGAGCACTCC) | 0.0453
GTGAGCACTTGGGTTCTAACCTGTTGCTA (site AATTAGCCTAG) | 0.0422
GTGAGCACTTGGGTTCTAACCTGTTGCTA (site GTGAGCACTTA) | 0.337
GTGAGGACTTGGGTTCTAACCTGTTGCCT (site ATGAGGACTAG) | 0.739
GTGAGGACTTGGGTTCTAACCTGTTGCCT (site CTGAGGACTAG) | 0.133
GTGAGGACTTGGGTTCTAACCTGTTGCCT (site GTGAGGACTAG) | 1.49
GTGAGGACTTGGGTTCTAACCTGTTGCCT (site TTGAGGACTAG) | 0.316
GTGAGGACTTGGGTTCTAACCTGTTGCGT (site GTGAGGACTAC) | 3.11
GTGAGGACTTGGGTTCTAACCTGTTGCGT (site GTGCGGACTAC) | 0.236
GTGAGGACTTGGGTTCTAACCTGTTGCTG (site GTGAGGACTCA) | 2.68
GTGAGGACTTGGGTTCTAACCTGTTGCTG (site GTGTGGACTCT) | 0.0356

Sequence | recombinant barcode read abundance (log10)
GTGATAGCTTGGGTTCTAACCTGTTGCGG (site GATATAGCTCC) | 0.16
GTGATAGCTTGGGTTCTAACCTGTTGCGG (site GTGATAGCTCC) | 1.12
GTGATCCCTTGGGTTCTAACCTGTTGCCT (site GAGATCCCTAG) | 0.585
GTGATCCCTTGGGTTCTAACCTGTTGCCT (site GTGATCCCTAG) | 1.18
GTGCACCCTTGGGTTCTAACCTGTTGCTT (site GGGCATCCTAA) | 0.115
GTGCACCCTTGGGTTCTAACCTGTTGCTT (site GTGCACCCTAA) | 1.57
GTGCCTGCTTGGGTTCTAACCTGTTGCCT (site GCGCATGCTAG) | 0.039
GTGCCTGCTTGGGTTCTAACCTGTTGCCT (site GTGCCTGCTAG) | 1.05
GTGCGCCCTTGGGTTCTAACCTGTTGCGG (site GTGCGCCCTAC) | 0.369
GTGCGCCCTTGGGTTCTAACCTGTTGCGG (site GTGCGCCCTCC) | 1.28
GTGCGCTCTTGGGTTCTAACCTGTTGCGC (site CCAGCTGCTAG) | 0.0659
GTGCGCTCTTGGGTTCTAACCTGTTGCGC (site GTGCGCTCTGC) | 0.145
GTGGAAGCTTGGGTTCTAACCTGTTGCCT (site GAGGAAGCTAG) | 0.316
GTGGAAGCTTGGGTTCTAACCTGTTGCCT (site GCGGAAGCTAG) | 0.367
GTGGAAGCTTGGGTTCTAACCTGTTGCCT (site GGGGAAGCTAG) | 0.262
GTGGAAGCTTGGGTTCTAACCTGTTGCCT (site GTGGAAGCTAG) | 1.1
GTGGATGCTTGGGTTCTAACCTGTTGCCT (site GGGGATTCTAG) | 0.28
GTGGATGCTTGGGTTCTAACCTGTTGCCT (site GTGGATGCTAG) | 1.6
GTGGGCCCTTGGGTTCTAACCTGTTGCCT (site GTATGCCCTAG) | 0.02
GTGGGCCCTTGGGTTCTAACCTGTTGCCT (site GTGGGCCCTAG) | 2.07
